# pIC50: −log10 of the molar value.
# Biological target: T1, human TLR9 (Homo sapiens, UniProt Q9NR96)
# T1 construct: host or cells: HEK293 (HEK-Blue hTLR9)
# T1 sequence (Q9NR96 26-1032): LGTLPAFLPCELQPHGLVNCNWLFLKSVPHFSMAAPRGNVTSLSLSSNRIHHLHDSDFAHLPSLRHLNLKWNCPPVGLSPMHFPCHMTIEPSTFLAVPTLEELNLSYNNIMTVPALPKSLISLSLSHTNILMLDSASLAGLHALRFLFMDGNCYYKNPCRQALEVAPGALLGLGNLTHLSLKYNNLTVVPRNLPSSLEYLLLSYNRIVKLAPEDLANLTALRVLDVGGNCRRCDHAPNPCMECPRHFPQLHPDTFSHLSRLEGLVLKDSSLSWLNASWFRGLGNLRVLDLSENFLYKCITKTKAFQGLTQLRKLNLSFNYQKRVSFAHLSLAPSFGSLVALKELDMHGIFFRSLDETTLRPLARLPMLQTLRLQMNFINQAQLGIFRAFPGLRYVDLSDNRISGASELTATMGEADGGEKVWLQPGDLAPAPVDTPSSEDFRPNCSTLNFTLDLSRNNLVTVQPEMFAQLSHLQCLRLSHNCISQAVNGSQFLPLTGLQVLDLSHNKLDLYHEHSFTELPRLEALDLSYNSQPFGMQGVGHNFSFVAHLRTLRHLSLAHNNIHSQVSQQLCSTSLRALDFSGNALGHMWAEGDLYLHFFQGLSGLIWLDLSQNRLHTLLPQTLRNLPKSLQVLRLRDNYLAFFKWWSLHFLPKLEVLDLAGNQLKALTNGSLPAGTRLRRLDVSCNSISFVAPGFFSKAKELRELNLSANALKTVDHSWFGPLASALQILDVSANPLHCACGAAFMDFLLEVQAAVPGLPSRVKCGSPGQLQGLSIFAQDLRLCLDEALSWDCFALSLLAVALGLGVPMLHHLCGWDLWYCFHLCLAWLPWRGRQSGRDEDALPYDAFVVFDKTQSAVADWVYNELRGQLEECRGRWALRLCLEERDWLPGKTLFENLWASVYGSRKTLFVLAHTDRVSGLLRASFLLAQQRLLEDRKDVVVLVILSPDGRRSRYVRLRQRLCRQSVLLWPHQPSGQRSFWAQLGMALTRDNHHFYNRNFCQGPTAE
# Test: HEK293-Blue-hTLR-9 cells assay
# Format: cell-based
# Details: HEK293-Blue-hTLR9 cells, ODN2006 stimulation, 20 hrs, SEAP reporter; read-out: HEK/hTLR9 IC50
# Description: HEK293-Blue-hTLR-9 Cells Assay:
# A stable HEK293-Blue-hTLR-9 cell line was purchased from InvivoGen (Cat. #: hkb-htlr9, San Diego, Calif., USA). These cells were originally designed for studying the stimulation of human TLR9 by monitoring the activation of NF-κB. A SEAP (secreted embryonic alkaline phosphatase) reporter gene was placed under the control of the IFN-β minimal promoter fused to five NF-κB and AP-1-binding sites. The SEAP was induced by activating NF-κB and AP-1 via stimulating HEK-Blue hTLR9 cells with TLR9 ligands. Therefore the reporter expression was declined by TLR9 antagonist under the stimulation of a ligand, such as ODN2006 (Cat. #: tlrl-2006-1, Invivogen, San Diego, Calif., USA), for incubation of 20 hrs. The cell culture supernatant SEAP reporter activity was determined using QUANTI-Blue^TM kit (Cat. #: rep-qbl, Invivogen, San Diego, Calif., USA) at a wavelength of 640 nm, a detection medium that turns purple or blue in the presence of alkaline phosphatase.
# HEK293-Blue-hTLR9 cells were incubated at a density of 250,000˜450,000 cells/mL in a volume of 170 μL in a 96-well plate in Dulbecco's Modified Eagle's medium (DMEM) containing 4.5 g/L glucose, 50 U/mL penicillin, […] streptomycin, […] Normocin, 2 mM L-glutamine, 10% (v/v) heat-inactivated fetal bovine serum with addition of 20 μL test compound in a serial dilution in the presence of final DMSO at 1% and 10 μL of 20 uM ODN2006 in above DMEM, perform incubation under 37° C. in a CO2 incubator for 20 hrs. Then 20 μL of the supernatant from each well was incubated with 180 μL Quanti-blue substrate solution at 37° C. for 2 h and the absorbance was read at 620-655 nm using a spectrophotometer. The signaling pathway that TLR9 activation leads to downstream NF-κB activation has been widely accepted, and therefore similar reporter assay was modified for evaluating TLR9 antagonist.
row,Compound,pIC50
1,"[2H]c1ccc2c(N3C[C@@H](C)N4Cc5nc(N6CC[C@@H](OC)[C@H](N)C6)ccc5[C@H]4C3)ccc(C#N)c2n1 [Example 15, 5-[(2S,6R)-11-[(3R,4R)-3-amino-4-methoxy-1-piperidyl]-6-methyl-4,7,10-triazatricyclo[7.4.0.02,7]trideca-1(9),10,12-trien-4-yl]-2-deuterio-quinoline-8-carbonitrile]",6.67
2,"C[C@@H]1CN(c2ccc(C#N)c3ncccc23)C[C@@H]2c3ccc(N4CCNCC4)nc3CN12 [Example 5, 5-[(2S,6R)-6-methyl-11-piperazin-1-yl-4,7,10-triazatricyclo[7.4.0.02,7]trideca-1(9),10,12-trien-4-yl]quinoline-8-carbonitrile]",6.60
3,"[2H]c1ccc2c(N3C[C@@H](C)N4Cc5nc(N6CC[C@H](OC)[C@@H](N)C6)ccc5[C@H]4C3)ccc(C#N)c2n1 [Example 14, 5-[(2S,6R)-11-[(3S,4S)-3-amino-4-methoxy-1-piperidyl]-6-methyl-4,7,10-triazatricyclo[7.4.0.02,7]trideca-1(9),10,12-trien-4-yl]-2-deuterio-quinoline-8-carbonitrile]",6.50
4,"C[C@@H]1CN(c2ccc(C#N)c3ncccc23)C[C@@H]2c3cnc(N4CCNCC4)cc3CN12 [Example 2, 5-[(2S,6R)-6-methyl-11-piperazin-1-yl-4,7,12-triazatricyclo[7.4.0.02,7]trideca-1(9),10,12-trien-4-yl] quinoline-8-carbonitrile]",6.35
5,"[2H]c1ccc2c(N3C[C@@H](C)N4Cc5nc(C6CCNCC6)ccc5[C@H]4C3)ccc(C#N)c2n1 [Example 23, 2-Deuterio-5-[(2S,6R)-6-methyl-11-(4-piperidyl)-4,7,10-triazatricyclo[7.4.0.02,7]trideca-1(9),10,12-trien-4-yl]quinoline-8-carbonitrile]",6.63
6,"[2H]c1ccc2c(N3C[C@@H](C)N4Cc5nc(N6CC[C@H](N)[C@H](OC)C6)ccc5[C@H]4C3)ccc(C#N)c2n1 [Example 13, 5-[(2S,6R)-11-[(3R,4S)-4-amino-3-methoxy-1-piperidyl]-6-methyl-4,7,10-triazatricyclo[7.4.0.02,7]trideca-1(9),10,12-trien-4-yl]-2-deuterio-quinoline-8-carbonitrile]",6.54
7,"[2H]c1ccc2c(N3C[C@@H](C)N4Cc5nc(N6CC[C@@](C)(N)C6)ccc5[C@H]4C3)ccc(C#N)c2n1 [Example 7, 5-[(2S,6R)-11-[(3R)-3-amino-3-methyl-pyrrolidin-1-yl]-6-methyl-4,7,10-triazatricyclo[7.4.0.02,7]trideca-1(9),10,12-trien-4-yl]-2-deuterio-quinoline-8-carbonitrile]",6.63
8,"C[C@@H]1CN(c2ccc(C#N)c3ncccc23)C[C@@H]2c3ccc(N4CCCNCC4)nc3CN12 [Example 20, 5-[(2S,6R)-11-(1,4-diazepan-1-yl)-6-methyl-4,7,10-triazatricyclo[7.4.0.02,7]trideca-1(9),10,12-trien-4-yl]quinoline-8-carbonitrile]",6.69

# Continued by rising pIC50, values first:
row,pIC50,Compound
1,6.70,"[2H]c1ccc2c(N3C[C@@H](C)N4Cc5nc(N6CC[C@@H](N)[C@H](OC)C6)ccc5[C@H]4C3)ccc(C#N)c2n1 [Example 11, 5-[(2S,6R)-11-[(3R,4R)-4-amino-3-methoxy-1-piperidyl]-6-methyl-4,7,10-triazatricyclo[7.4.0.02,7]trideca-1(9),10,12-trien-4-yl]-2-deuterio-quinoline-8-carbonitrile]"
2,6.71,"C[C@@H]1CN(c2ccc(C#N)c3ncccc23)C[C@@H]2c3ccc(N4CC5CNCC(C4)O5)nc3CN12 [Example 6, 5-[(2S,6R)-6-methyl-11-(9-oxa-3,7-diazabicyclo[3.3.1]nonan-3-yl)-4,7,10-triazatricyclo[7.4.0.02,7]trideca-1(9),10,12-trien-4-yl]quinoline-8-carbonitrile]"
3,6.73,"[2H]c1ccc2c(N3C[C@@H](C)N4Cc5nc(N6CC[C@H]7CNC[C@H]76)ccc5[C@H]4C3)ccc(C#N)c2n1 [Example 10, 5-[(2S,6R)-11-[(3aS,6aS)-3,3a,4,5,6,6a-hexahydro-2H-pyrrolo[2,3-c]pyrrol-1-yl]-6-methyl-4,7,10-triazatricyclo[7.4.0.02,7]trideca-1(9),10,12-trien-4-yl]-2-deuterio-quinoline-8-carbonitrile]"
4,6.85,"N#Cc1ccc(N2CCN3Cc4nc(N5CCNCC5)ccc4[C@@H]3C2)c2cccnc12 [Example 3A, 5-[(2R)-11-piperazin-1-yl-4,7,10-triazatricyclo[7.4.0.02,7]trideca-1(9),10,12-trien-4-yl]quinoline-8-carbonitrile]"
5,6.85,"[2H]c1ccc2c(N3C[C@@H](C)N4Cc5nc(N6CCC(C)(N)CC6)ccc5[C@H]4C3)ccc(C#N)c2n1 [Example 19, 5-[(2S,6R)-11-(4-amino-4-methyl-1-piperidyl)-6-methyl-4,7,10-triazatricyclo[7.4.0.02,7]trideca-1(9),10,12-trien-4-yl]-2-deuterio-quinoline-8-carbonitrile]"
6,6.86,"[2H]c1ccc2c(N3C[C@@H](C)N4Cc5nc(N6CC[C@](C)(N)C6)ccc5[C@H]4C3)ccc(C#N)c2n1 [Example 8, 5-[(2S,6R)-11-[(3S)-3-amino-3-methyl-pyrrolidin-1-yl]-6-methyl-4,7,10-triazatricyclo[7.4.0.02,7]trideca-1(9),10,12-trien-4-yl]-2-deuterio-quinoline-8-carbonitrile]"
7,6.92,"[2H]c1ccc2c(N3C[C@@H](C)N4Cc5nc(N6C[C@@H]7C[C@H]6CN7)ccc5[C@H]4C3)ccc(C#N)c2n1 [Example 16, 2-Deuterio-5-[(2S,6R)-11-[(1S,4S)-2,5-diazabicyclo[2.2.1]heptan-2-yl]-6-methyl-4,7,10-triazatricyclo[7.4.0.02,7]trideca-1(9),10,12-trien-4-yl]quinoline-8-carbonitrile]"
8,6.93,"[2H]c1ccc2c(N3C[C@@H](C)N4Cc5nc(OC6CCNCC6)ccc5[C@H]4C3)ccc(C#N)c2n1 [Example 24, 2-Deuterio-5-[(2S,6R)-6-methyl-11-(4-piperidyloxy)-4,7,10-triazatricyclo[7.4.0.02,7]trideca-1(9),10,12-trien-4-yl]quinoline-8-carbonitrile]"
9,6.98,"[2H]c1ccc2c(N3C[C@@H](C)N4Cc5nc(N6CCC7(CNC7)C6)ccc5[C@H]4C3)ccc(C#N)c2n1 [Example 9, 2-Deuterio-5-[(2S,6R)-11-(2,6-diazaspiro[3.4]octan-6-yl)-6-methyl-4,7,10-triazatricyclo[7.4.0.02,7]trideca-1(9),10,12-trien-4-yl]quinoline-8-carbonitrile]"
10,7.25,"CC1(N)CCN(c2ccc3c(n2)CN2CCN(c4ccc(C#N)c5ncccc45)C[C@@H]32)CC1 [Example 4A, 5-[(2R)-11-(4-amino-4-methyl-1-piperidyl)-4,7,10-triazatricyclo[7.4.0.02,7]trideca-1(9),10,12-trien-4-yl]quinoline-8-carbonitrile]"
11,7.27,"[2H]c1ccc2c(N3C[C@@H](C)N4Cc5nc(N6C[C@H]7C[C@@H]6CN7)ccc5[C@H]4C3)ccc(C#N)c2n1 [Example 17, 2-Deuterio-5-[(2S,6R)-11-[(1R,4R)-2,5-diazabicyclo[2.2.1]heptan-2-yl]-6-methyl-4,7,10-triazatricyclo[7.4.0.02,7]trideca-1(9),10,12-trien-4-yl]quinoline-8-carbonitrile]"

# — patent US12503471B2, “Triazatricycle compounds for the treatment of autoimmune disease” (Hoffmann-La Roche Inc., priority 2019, dated 2025)
